{
  "source": "ChEMBL document CHEMBL1201862",
  "about": "“PubChem BioAssay data set” (2004)",
  "test_in_all_cases": "NCI tumour cell line growth inhibition, 48 h",
  "key": {"DU-145": {"test_system": "DU-145"}, "RXF 393": {"test_system": "RXF 393"}, "SK-MEL-5": {"test_system": "SK-MEL-5"}, "SK-MEL-28": {"test_system": "SK-MEL-28"}, "ACHN": {"test_system": "ACHN"}, "A498": {"test_system": "A498"}, "HT-29": {"test_system": "HT-29"}, "SR": {"test_system": "SR"}, "OVCAR-8": {"test_system": "OVCAR-8"}, "NCI-H226": {"test_system": "NCI-H226"}, "UACC-62": {"test_system": "UACC-62"}, "MDA-MB-231": {"test_system": "MDA-MB-231"}, "NCI-H460": {"test_system": "NCI-H460"}, "SN12C": {"test_system": "SN12C"}, "HCC 2998": {"test_system": "HCC 2998"}, "IGROV-1": {"test_system": "IGROV-1"}, "OVCAR-4": {"test_system": "OVCAR-4"}, "BT-549": {"test_system": "BT-549"}, "HCT-15": {"test_system": "HCT-15"}, "TK-10": {"test_system": "TK-10"}},
  "note": "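Cultured in 96-well plates, cells were exposed to test compound for 48 hours across five concentrations. GI50: concentration for 50% inhibition of growth.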 Active and inactive are the calls of the source. No stated cut-off is given here; in the data, active = GI50 up to about 1.1 µM and inactive = higher.",
  "data": [
    {"smiles": "O=C1c2ccccc2-c2c1c1ccccc1c(=O)n2-c1cccnc1", "values": [
      {"measurement": "GI50", "setting": "DU-145", "result": "> 100 µM (inactive)"},
      {"measurement": "GI50", "setting": "RXF 393", "result": "> 100 µM (inactive)"},
      {"measurement": "GI50", "setting": "SK-MEL-5", "result": "73.5 µM (inactive)"},
      {"measurement": "GI50", "setting": "SK-MEL-28", "result": "> 100 µM (inactive)"},
      {"measurement": "GI50", "setting": "ACHN", "result": "23.2 µM (inactive)"},
      {"measurement": "GI50", "setting": "A498", "result": "> 10 µM (inactive)"},
      {"measurement": "GI50", "setting": "HT-29", "result": "> 63.7 µM (inactive)"},
      {"measurement": "GI50", "setting": "SR", "result": "5.53 µM (inactive)"},
      {"measurement": "GI50", "setting": "OVCAR-8", "result": "31.8 µM (inactive)"},
      {"measurement": "GI50", "setting": "NCI-H226", "result": "61.5 µM (inactive)"},
      {"measurement": "GI50", "setting": "UACC-62", "result": "32 µM (inactive)"},
      {"measurement": "GI50", "setting": "MDA-MB-231", "result": "> 59.7 µM (inactive)"},
      {"measurement": "GI50", "setting": "NCI-H460", "result": "6.24 µM (inactive)"},
      {"measurement": "GI50", "setting": "SN12C", "result": "> 52.2 µM (inactive)"},
      {"measurement": "GI50", "setting": "HCC 2998", "result": "> 100 µM (inactive)"},
      {"measurement": "GI50", "setting": "IGROV-1", "result": "34.2 µM (inactive)"},
      {"measurement": "GI50", "setting": "OVCAR-4", "result": "> 49.3 µM (inactive)"},
      {"measurement": "GI50", "setting": "BT-549", "result": "34.8 µM (inactive)"},
      {"measurement": "GI50", "setting": "HCT-15", "result": 24.9, "unit": "µM"},
      {"measurement": "GI50", "setting": "TK-10", "result": "> 62.1 µM (inactive)"}
    ]}
  ]
}
